Data reported in patent EP3295938B1, “USE OF TRIETHYL ORTHOACETATE IN THE TREATMENT OF METAL OVERLOAD DISEASES” (ÜSKÜDAR ÜNIVERSITESI, priority 2016, dated 2018).

Experiments:
[1] = Iron chelation activity (FeSO4/ferrozine, absorbance at 562 nm); type: biochemical; conditions: 100, 200 and 400 mM pure triethyl orthoacetate (Fig. 7)
Method: Negative controls and methanolicmicroalgae extracts (400 µl) were pipetted into 24 well plate, then 100 µl of 0.25mM FeSO4 solution (dissolved in methanol) was added. For the reaction initiation, 100 µl 5mM ferrozine dissolved in methanol was added. Solution was homogenized by pipetting and incubated for 10 minutes at room temperature. After incubation, it was analysed by using spectrophotometric measurement at 562nm wavelength. In vitro experiments with pure triethyl orthoacetate compound was also conducted with the concentrations of 100, 200 and 400 mM respectively. Same experimental protocol was used for pure triethyl orthoacetate as described in detail above for Spirulina platensis extract.

[2] = after intravenous infusion; cited from earlier work

**Q.** With CCOC(C)(OCC)OCC [triethyl orthoacetate, Triethyl orthoacetate] as the compound, how does the “in vitro iron chelating activity” value [1] read?
**A.** > 70%

**Q.** Which vascular half-life [2] does the source give for CC(=O)N(O)CCCCCNC(=O)CCC(=O)N(O)CCCCCNC(=O)CCC(=O)N(O)CCCCCN [deferoxamine] here?
**A.** 5 to 10 min
